The structures appear in SMILES notation.

A short description of the data set: photoluminescence quantum yield (fraction); solvent given as SMILES.

Compound `CN1/C(=C/C=C(/C=C/C2=[N+](C)c3ccccc3C2(C)C)c2ccccc2)C(C)(C)c2ccccc21` yielded a photoluminescence quantum yield (in CCO) of 0.11, a photoluminescence quantum yield (in CO) of 0.09 and a photoluminescence quantum yield (in CS(C)=O) of 0.29.

Regarding `CCn1c2ccccc2c2ccc(-c3ccc(OC)cc3)cc21`, the photoluminescence quantum yield (in C1CCCCC1) is 0.22.

As to `COc1ccc(/C=C/c2nc(/C=C/c3ccc(N(C)C)cc3)cc(/C=C/c3ccc(N(c4ccccc4)c4ccccc4)cc3)n2)cc1`, the photoluminescence quantum yield (in ClCCl) was found to be 0.68.

The compound `Cc1c(C)c(B(c2c(C)c(C)c(N3c4ccccc4Oc4ccccc43)c(C)c2C)c2c(C)c(C)c(N3c4ccccc4Oc4ccccc43)c(C)c2C)c(C)c(C)c1C#N` returned a photoluminescence quantum yield (in c1ccc([Si](c2ccccc2)(c2ccc(-n3c4ccccc4c4ccccc43)cc2)c2ccc(-n3c4ccccc4c4ccccc43)cc2)cc1) of 0.75.

Turning to `CNC1=C2C=CC=[N+]2[B-](F)(F)n2cccc21`, the photoluminescence quantum yield by setting is: (in C1CCCCC1) 0.7; (in CC(C)=O) 0.16; (in CCO) 0.16; (in CCOC(C)=O) 0.42; (in CO) 0.1; (in OCC(F)(F)F) 0.23.

As for `COc1ccc2c(c1)SCC1=C(c3ccccc3)C3=Nc4c(-c5ccccc5)c5c(n4[B-](F)(F)[N+]3=C12)-c1ccc(OC)cc1SC5`, where the note is “in ClC(Cl)Cl”, the photoluminescence quantum yield is 0.11.

Consider `CC1(C)c2ccccc2N(c2ccc3c(c2)c2cc(N4c5ccccc5C(C)(C)c5ccccc54)ccc2c2nc(C#N)c(C#N)nc32)c2ccccc21`, for which the photoluminescence quantum yield was 0.12 (in Cc1ccccc1) and 0.33 (in O=P(c1ccccc1)(c1ccccc1)c1cccc(-c2cc(-n3c4ccccc4c4ccccc43)cc(-n3c4ccccc4c4ccccc43)c2)n1).

For the setting “in C1CCCCC1”, `COc1ccc([Si](C)(C)C)c2ccccc12` gave a photoluminescence quantum yield of 0.65.

Consider `COc1ccc(O[B-]2(Oc3ccc(OC)cc3)n3c(C)cc(C)c3C(c3ccc(I)cc3)=C3C(C)=CC(C)=[N+]32)cc1`, for which the photoluminescence quantum yield (in ClC(Cl)Cl) is 0.004.

Turning to `Fc1ccc(N(c2ccc(F)cc2)c2ccc3c4cccc5c(N(c6ccc(F)cc6)c6ccc(F)cc6)ccc(c6cccc2c63)c54)cc1`, for the setting “in ClCCl”, the photoluminescence quantum yield was determined as 0.64.

For `F[B-]1(F)OC(c2ccccc2)=CC(c2ccccc2)=[O+]1`, the photoluminescence quantum yield amounted to 0.8 (in CC#N) and 0.15 (in ClC(Cl)(Cl)Cl).

`CC1(C)[C@@H]2CC[C@]1(C)c1nc3cc(-c4cccs4)ccc3nc12`: the photoluminescence quantum yield runs as follows: (in CC#N) 0.06; (in CCCCO) 0.35; (in CCO) 0.37; (in CCOC(C)=O) 0.02; (in CO) 0.52; (in Cc1ccccc1) 0.01. Also, the photoluminescence quantum yield stood at 0.11 (in ClC(Cl)Cl) and 0.05 (in ClCCl).

For `CCCCCCN1C(=O)c2cccc3cc(/N=C\c4ccc(N5CCOCC5)cc4)cc(c23)C1=O`, the photoluminescence quantum yield (in ClC(Cl)Cl) was 0.089.

`C(=C\c1ccc(-c2nc3c4cccnc4c4ncccc4c3[nH]2)cc1)/c1ccncc1`: the photoluminescence quantum yield worked out at 0.54 (in C1CCOC1), 0.32 (in CC#N), 0.19 (in CO) and 0.48 (in ClCCl).

Where the note is “in Cc1ccccc1”, `COc1ccc(C2=Nc3sc(-c4ccccc4)n[n+]3[B-](F)(F)O2)cc1` gave a photoluminescence quantum yield of 0.29.

For the compound `CCN(CC)c1ccc2c(C)cc(=O)oc2c1`, the photoluminescence quantum yield came out at 0.68 (in CCCCCCCCO); 0.66 (in CCCCCCO); 0.61 (in CCCCO); 0.62 (in CCCO); 0.41 (in CCO); 0.26 (in CO). In addition, the photoluminescence quantum yield (in O) amounted to 0.041.

As for `COc1ccccc1C1=[N+]2C(=Cc3c4c(c(-c5ccccc5OC)n3[B-]2(F)F)C2CCC4CC2)C2=C1C1CCC2CC1`, the photoluminescence quantum yield (in ClCCl) is 0.77.

With `COc1cccc(C2=CC3=C(c4c(C)cc(C)cc4C)c4cc(-c5cccc(OC)c5)c(-c5cccc(OC)c5)n4[B-](F)(F)[N+]3=C2c2cccc(OC)c2)c1`, the photoluminescence quantum yield by setting is: (in C1CCCCC1) 0.86; (in C1CCOC1) 0.76; (in CC#N) 0.65; (in Cc1ccccc1) 0.78; (in ClCCl) 0.83.

Consider `CCOC(=O)c1cc(C(=O)OCC)c2cc(N(C)C)ccc2n1`, for which the photoluminescence quantum yield (in CCO) amounted to 0.595.

With `CCCCCc1c(C(=O)c2ccc3c4c(cccc24)-c2cccc4c2C3CC=C4)c2ccc3cccc4c5cccc6ccc1c(c65)c2c34` (configuration not stated), where the note is “in ClCCl”, the photoluminescence quantum yield worked out at 0.082.

As for `Cc1nc2c(ccc3ccc(O)cc32)oc1=O`, the photoluminescence quantum yield (in c1ccccc1) stood at 0.358.

In the case of `CC(C)(C)c1cc2c(c(C(C)(C)C)c1)O[B-]1(c3ccc([B-]45OC(c6ccccc6)=N[N+]4=Cc4cc(C(C)(C)C)cc(C(C)(C)C)c4O5)cc3)OC(c3ccccc3)=N[N+]1=C2` (configuration not stated), the photoluminescence quantum yield (in C1CCOC1) is 0.001.

`N#Cc1c2oc3ccccc3oc2c(C#N)c2oc3ccccc3oc12`: under “in ClC(Cl)Cl”, the photoluminescence quantum yield worked out at 0.78.

For the compound `C(=C\c1nc2ccccc2s1)/c1ccc(-c2nc3c4cccnc4c4ncccc4c3[nH]2)cc1`, the photoluminescence quantum yield reads like this: (in C1CCOC1) 0.33; (in CC#N) 0.17; (in CO) 0.11; (in ClCCl) 0.25.

`CCCn1c2cccc3c2[c+]2c4c1cccc4n(CCC)c1cccc(c12)n3CCC`: the photoluminescence quantum yield came out at 0.16 (in CC#N), 0.2 (in CO) and 0.16 (in ClCCl).

Turning to `c1cc2c3c(c1)OCCCCCCCOc1cccc(c1-c1c4ccccc4c-3c3ccccc13)OCCCCCCCO2`, the photoluminescence quantum yield (in C1CCCCC1) was 0.98.

In turn, `Clc1ncc(-c2c3ccccc3c(-c3cnc(Cl)nc3)c3ccccc23)cn1` gave a photoluminescence quantum yield (in CCO) of 0.22 and a photoluminescence quantum yield (in ClCCl) of 0.78.

Turning to `N#Cc1c(N2CCCCC2)cc(-c2cccs2)c2c1-c1cccc3cccc-2c13`, under “in O”, the photoluminescence quantum yield came to 0.3.

On to `CCCCN(CCCC)c1ccc(/C=C/c2ccc3nc(/C=C/c4ccc(N(C)C)cc4)c(=O)n(CCC)c3c2)cc1`, for which the photoluminescence quantum yield was 0.26 (in C1COCCO1), 0.04 (in CC#N) and 0.2 (in ClCCl).

Turning to `CC[N+]1(CC)CN2C(C)=CC(C)=C(C(=O)[O-])C2=N1`, the photoluminescence quantum yield came to 0.105 (in CN(C)C=O) and 0.783 (in O).

On to `CCc1c(C)c2n(c1C)[B-](F)(F)[N+]1=C(NCc3ccc(OC)cc3)C=CC1=C2C`, for which the photoluminescence quantum yield came out at 0.65 (in CC#N); 0.73 (in CCCCCC); 0.59 (in CCOC(C)=O); 0.59 (in CO); 0.61 (in ClCCl).

Where the note is “in Cc1ccccc1”, `c1ccc(-c2nnc(-c3ccc(N4c5ccccc5Oc5ccccc54)cc3)n2-c2ccccc2)cc1` had a photoluminescence quantum yield of 0.127.

The compound `Cc1cc(C)c(C2=C3C=C(/C=C/C(=O)OC(C)(C)C)C=[N+]3[B-](F)(F)n3cccc32)c(C)c1` showed a photoluminescence quantum yield (in ClCCl) of 0.3.

As to `C[Si]1(C)O[Si](C)(C)c2cc3nc4ccc(Cl)cc4c(-c4ccccc4)c3cc2[Si](C)(C)O1`, the photoluminescence quantum yield (in ClCCl) came out at 0.29.

Consider `COc1ccc(C#Cc2c3ccccc3c(C#Cc3ccc(OC)cc3)c3cc4ccccc4cc23)cc1`, for which the photoluminescence quantum yield (in ClCCl) was 0.85.

Under “in ClC(Cl)Cl”, `Cc1cc(C2=Cc3cccc[n+]3[B-](F)(F)O2)ccc1N(C)C` showed a photoluminescence quantum yield of 0.688.

Where the note is “in ClCCl”, `COC(=O)/C=C/C=C/C1=CC2=C(c3c(C)cc(C)cc3C)c3cc(/C=C/C=C/C(=O)OC)cn3[B-](F)(F)[N+]2=C1` came in with a photoluminescence quantum yield of 0.054.

For the compound `CCN(CC)c1ccc2c(c1)oc(=O)c1cnc3c(cnn3-c3ccccc3)c12`, the photoluminescence quantum yield is, setting by setting: (in C1CCCCC1) 0.926; (in CCOC(C)=O) 0.885; (in CN(C)C=O) 0.296; (in CO) 0.222; (in ClCCl) 0.916.

On to `N#Cc1nn(-c2cc(F)cc(F)c2)nc1N1CCCC1`, for which the photoluminescence quantum yield (in CC#N) came to 0.837.

Where the note is “in C1CCCCC1”, `c1cc2c3c(c1)OCCCCCCOc1cccc(c1-c1c4ccccc4c-3c3ccccc13)OCCCCCCO2` displayed a photoluminescence quantum yield of 0.93.

As to `CCCCCCCCn1c(=O)c2cc3cc4cc5c(=O)n(CCCCCCCC)c(=O)c5cc4c(C#Cc4ccc(N(c5ccccc5)c5ccccc5)cc4)c3cc2c1=O`, the photoluminescence quantum yield (in ClC(Cl)Cl) worked out at 0.39.

Consider `COCCOc1cc(C=O)c(OCCOC)cc1C=O`, for which the photoluminescence quantum yield was 0.11 (in CC(C)(C)O); 0.1 (in CC(C)CO); 0.1 (in CC(C)O); 0.17 (in CCCCO); 0.19 (in CCCO); 0.18 (in CCO). The photoluminescence quantum yield is, setting by setting: (in CN(C)C=O) 0.03; (in CNC=O) 0.08; (in CO) 0.22; (in NC=O) 0.3; (in O) 0.54.

The compound `CCOC(=O)c1cc(C(=O)OCC)c2c(C)ccc(O)c2n1` had a photoluminescence quantum yield (in CCO) of 0.26.

`COC(=O)c1c(C(=O)OC)c2ccc(-c3ccccc3)nn2c1C` returned a photoluminescence quantum yield (in CCCCCC) of 0.685.

`O=C1Cc2ccc(cc2)CC(=O)Cc2ccc(c3nsnc23)C1` showed a photoluminescence quantum yield (in C1CCCCC1) of 0.85, a photoluminescence quantum yield (in CC#N) of 0.45 and a photoluminescence quantum yield (in ClC(Cl)Cl) of 0.68.

`Cc1cc(C(F)(F)F)nc2c1ccc1nc(-c3ccc(Cl)cc3)cn12`: the photoluminescence quantum yield (in CC#N) was determined as 0.84; the photoluminescence quantum yield (in CCCCOC(C)=O) came to 0.76; the photoluminescence quantum yield (in CCOC(C)=O) was 0.9; the photoluminescence quantum yield (in CO) worked out at 0.78; the photoluminescence quantum yield (in ClC(Cl)Cl) was 0.64; the photoluminescence quantum yield (in c1ccccc1) was 0.88.

For `CN(C)c1ccc(/C=C/c2cnc(-c3ccncc3)o2)cc1`, where the note is “in ClCCl”, the photoluminescence quantum yield is 0.65.

With `C(=C\c1c2ccccc2cc2ccccc12)/c1cnc2ccccc2c1`, the photoluminescence quantum yield was 0.7 (in CC1CCCCC1) and 0.58 (in CC#N).

Values taken from the Deep4Chem optical property database.
